The record followed here is article PMC10342533, “Novel Tetrazole Derivatives Targeting Tubulin Endowed with Antiproliferative Activity against Glioblastoma Cells” (International Journal of Molecular Sciences, 2023).

The test system of one data set is MCF7 cells. In words: Cell cycle analysis by flow cytometry (PI), MCF7. The class given is cell-based, human. Conditions: 100 nM. The method, then: To assess how tubulin polymerization inhibition and the effects on the microtubule network affect the cell cycle, flow cytometry experiments were performed on HeLa, MCF7, and U87 MG cells 24, 48, and 72 h after treatments with compounds 10, 12, and 14 at 100 nM using propidium iodide (PI) for DNA staining and untreated cells as the negative control.
HeLa, MCF7, or U87 MG cells were seeded in 6-well plates (8·10^4 cells/mL, 2 mL/well) and incubated in complete DMEM Medium (see above) at 37 °C and 5% CO2 atmosphere for 24 h. Then, the cells were treated with selected compounds (10, 12, or 14) at 100 nM, and untreated cells were used as negative controls. Cells were collected 24, 48, or 72 h following treatment and fixed overnight in ethanol/PBS (7:3) at 4 °C. After two washes with PBS, cells were suspended in PBS and incubated in darkness overnight with 0.2 mg/mL RNase A (Sigma-Aldrich, St. Louis, MO, USA), 50 µg/mL propidium iodide (Sigma-Aldrich, St. Louis, MO, USA), and Triton 10x at room temperature. A BD Accuri™ C6 Plus Flow Cytometer (BD Biosciences, Franklin Lakes, NJ, USA) cytometer was used to analyze the samples, and BD Accuri™ C6 Software (version 1.0.264.21) was used for data analysis.
(Flow cytometry measures light scatter and fluorescence of single cells or particles in a stream.)

The test system of data set [1] is microtubule network of U87 MG cells. In words: Immunofluorescence confocal microscopy of microtubule network, U87 MG. In kind it is cell-based, human. Conditions: 24 h, 100 nM, α-tubulin immunofluorescence. The method, then: To elucidate if the interaction of the compounds with tubulin inferred from the in vitro TPI experiments has consequences on cellular microtubules, we studied the effect of representative compounds on the microtubule network of HeLa, MCF7, and U87 MG cells 24 h after treatment via the use of immunofluorescence confocal microscopy through α-tubulin and nuclei labeling.
HeLa, MCF7, and U87 MG cells (8·10^4 cells/mL) were grown on 0.01% poly-L-lysine pre-coated square glass coverslips (22 mm^2), deposited on 6-well plates (1 coverslip/well), and incubated in complete DMEM medium (see above) at 37 °C and 5% CO2 atmosphere for 24 h. Then, the cells were incubated for 24 h in the presence or absence (negative controls) of selected compounds (10, 12, or 14) at 100 nM. After drug treatment incubation, medium was removed, and coverslips were washed three times with PBS, fixed with 4% formaldehyde in PBS for 10 min, permeabilized with 0.5% Triton X-100, (Sigma-Aldrich, St. Louis, MO, USA) in PBS for 90 s at 4 °C, blocked with 10% BSA in PBS for 30 min, and washed with PBS four times. The coverslips were incubated for 1 h with anti-α-tubulin mouse monoclonal antibody (Sigma-Aldrich, St. Louis, MO, USA), diluted 1:200 in PBS containing 3% BSA, washed four times with PBS, and then incubated in darkness with the fluorescent secondary antibody Alexa Fluor 488 goat anti-mouse IgG (Molecular Probes, Invitrogen, Eugenen, OR, USA) and diluted 1:400 in PBS containing 1% BSA for 1.5 h. The coverslips were washed four times with PBS, and a drop of ProLong™ Gold Antifade Mountant containing DAPI (ThermoFisher, Waltham, MA, USA) was added for cell nuclei staining. The samples were analyzed via confocal microscopy, which was performed by using a LEICA SP5 microscope DMI-6000V model coupled to a LEICA LAS AF software computer.

Data set [2] concerns T98G (temozolomide resistant glioblastoma). In words: Cell growth inhibition, MTT assay, T98G. In kind it is cell-based. The settings on record: Homo sapiens. (In general: Formazan colour is commonly taken as a measure of viable cells.)
Data set [3] has as its system HCT8 (colorectal carcinoma). The experiment in a line: Cell growth inhibition, MTT assay, HCT8. In kind it is cell-based. Conditions: Homo sapiens.
Data set [4] in a line: Aqueous solubility, shake-flask method, phosphate buffer pH 7.4. The settings on record: thermodynamic from solid, phosphate buffer pH 7.4, shake-flask, mean ± SD of three experiments. The class given is physicochemical. The gist of the method: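 Saturation shake-flask: 5 mg compound suspended in 500 µL phosphate buffer pH 7.4, shaken 72 h at room temperature, filtered. Dissolved concentration by UV absorbance at λmax against per-compound calibration lines; mean of three independent experiments.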

Setting [5] is: HCT-8, 72 h after drug exposure.

Values after ≈ are worked out from the molar mass of the structure shown. Values joined by “and” are separate entries in the source; they are usually repeats but may differ in a detail not shown here. Equal entries are not always repeated.

One may read the IC50 as the concentration at which inhibition is half-maximal. A word on the solubility: it is the dissolved amount per volume that the medium holds. Read a low solubility as a poorly soluble substance. In the data set with MCF7 cells (MCF7, 24 h), `CSc1cc(-c2nnnn2-c2ccc3c(ccn3C)c2)cc(Cl)n1` [Compound 10, 5-(5-(2-chloro-6-(methylsulfanyl)pyridin-4-yl)-1H-tetrazol-1-yl)-1-methyl-1H-indole] displayed a G0/G1 population of 22.5 % Cells, a G2/M population of 65.8 % Cells, a S population of 3.9 % Cells and a SubG0/G1 population of 7.7 % Cells. Besides, in the data set on MCF7 cells (MCF7, 48 h), the G0/G1 population was determined as 16.9 % Cells, the G2/M population is 58.1 % Cells, the S population was found to be 4.6 % Cells and the SubG0/G1 population came to 20.4 % Cells. Further, in the data set on MCF7 cells (MCF7, 72 h), the G0/G1 population was determined as 13.7 % Cells; the G2/M population is recorded as 54.8 % Cells; the S population was found to be 4.4 % Cells; the SubG0/G1 population was 27 % Cells and 27.2 % Cells. Further, the “effect on microtubule network” value in data set [1] is listed as “severe microtubule network disruption”. In addition, in data set [2] (72 h, 72 h after drug exposure), the IC50 amounted to 25 nM. This compound gave an IC50 in data set [3] (setting [5]) of 40 nM. The solubility at 72 h in data set [4] stood at 26.1 ± 0.2 µg/mL (≈ 73.1 µM).
Take `Cn1cc(C=O)c2cc(-n3nnnc3-c3cc(Cl)nc(Cl)c3)ccc21` [Compound 12, 5-(5-(2,6-dichloropyridin-4-yl)-1H-tetrazol-1-yl)-1-methyl-1H-indole-3-carbaldehyde]: the G0/G1 population in the data set on MCF7 cells (MCF7, 24 h) was 19.4 % Cells; with MCF7 cells (MCF7, 48 h), 16.4 % Cells; with MCF7 cells (MCF7, 72 h), 15.0 % Cells. Moreover, the G2/M population in the data set on MCF7 cells (MCF7, 24 h) was determined as 68.6 % Cells; in the data set on MCF7 cells (MCF7, 48 h), 62.9 % Cells; in the data set with MCF7 cells (MCF7, 72 h), 59.1 % Cells. In addition, the S population with MCF7 cells (MCF7, 24 h) is 7.0 % Cells; with MCF7 cells (MCF7, 48 h) it was 7.9 % Cells; with MCF7 cells (MCF7, 72 h) it was 10.8 % Cells. For the same compound, the SubG0/G1 population in the data set with MCF7 cells (MCF7, 24 h) was 5.2 % Cells; with MCF7 cells (MCF7, 48 h), 13.1 % Cells; with MCF7 cells (MCF7, 72 h), 15 % Cells and 15.5 % Cells. For the same compound, in data set [1], the “effect on microtubule network” value is recorded as “severe microtubule network disruption”. Besides, the IC50 in data set [2] (72 h, 72 h after drug exposure) was determined as 26 nM; in data set [2] (mean ± SD, Table S1), 26.2 ± 0.2 nM; in data set [3] (setting [5]), 40 nM; in data set [3] (HCT-8, mean ± SD, Table S1), 40.1 ± 0.3 nM. The compound also displayed a solubility at 72 h in data set [4] of 33.1 ± 0.3 µg/mL (≈ 88.7 µM).
Regarding `CSc1cc(-c2nnnn2-c2ccc3c(c2)c(C=O)cn3C)cc(Cl)n1` [Compound 14, 5-(5-(2-chloro-6-(methylsulfanyl)pyridin-4-yl)-1H-tetrazol-1-yl)-1-methyl-1H-indole-3-carbaldehyde], the G0/G1 population worked out at 22.7 % Cells in the data set on MCF7 cells (MCF7, 24 h); 16.8 % Cells in the data set with MCF7 cells (MCF7, 48 h); 19.1 % Cells in the data set with MCF7 cells (MCF7, 72 h). For the same compound, the G2/M population with MCF7 cells (MCF7, 24 h) worked out at 66.0 % Cells; with MCF7 cells (MCF7, 48 h), 58.4 % Cells; with MCF7 cells (MCF7, 72 h), 38.7 % Cells. Also, the S population is 5.9 % Cells with MCF7 cells (MCF7, 24 h); 6.9 % Cells in the data set on MCF7 cells (MCF7, 48 h); 8.1 % Cells in the data set on MCF7 cells (MCF7, 72 h). Also, the SubG0/G1 population was 5.2 % Cells in the data set with MCF7 cells (MCF7, 24 h); 17.9 % Cells with MCF7 cells (MCF7, 48 h); 34 % Cells and 34.6 % Cells with MCF7 cells (MCF7, 72 h). In addition, the “effect on microtubule network” value in data set [1] is “severe microtubule network disruption”. Also, the IC50 in data set [2] (72 h, 72 h after drug exposure) came out at 19 nM; in data set [3] (setting [5]), 29 nM; in data set [3] (HCT-8, mean ± SD, Table S1), 29.4 ± 0.2 nM. In data set [4], the solubility at 72 h amounted to 36.9 ± 0.3 µg/mL (≈ 95.9 µM).
